pKi: −log10 of the molar value. Where two headings read alike, the source gives them in different places.
Target: T1, recombinant human NK3 receptor (Homo sapiens, UniProt P29371)
T1 construct: expressed in transfected cells; host or cells: HEK293 cells, transient expression; membrane preparation
T1 sequence (P29371 1-465): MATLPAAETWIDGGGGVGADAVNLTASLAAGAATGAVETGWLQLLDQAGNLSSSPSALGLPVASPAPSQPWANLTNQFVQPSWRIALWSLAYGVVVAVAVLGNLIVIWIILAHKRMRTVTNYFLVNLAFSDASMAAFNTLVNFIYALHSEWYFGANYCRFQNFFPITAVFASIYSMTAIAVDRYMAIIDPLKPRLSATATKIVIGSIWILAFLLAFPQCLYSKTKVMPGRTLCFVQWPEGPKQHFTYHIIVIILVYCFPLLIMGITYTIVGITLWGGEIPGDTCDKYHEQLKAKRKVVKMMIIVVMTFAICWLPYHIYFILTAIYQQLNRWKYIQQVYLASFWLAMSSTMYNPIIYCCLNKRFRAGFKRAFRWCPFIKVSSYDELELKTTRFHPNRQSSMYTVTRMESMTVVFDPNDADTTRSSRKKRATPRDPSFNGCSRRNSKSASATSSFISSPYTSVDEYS
Experiment: [3H]SR142801 competition binding assay
Procedure: [^3H]SR142801 Competition Binding Assay
hNK3 receptor binding experiment were performed using [^3H]SR142801 (Catalog No. TRK1035, specific activity: 74.0 Ci/mmol, Amersham, GE Healthcare UK limited, Buckinghamshire, UK) and membrane isolated from HEK293 cells transiently expressing recombinant human NK3 receptor. After thawing, the membrane homogenates were centrifuged at 48,000×g for 10 min at 4° C., the pellets were resuspended in the 50 mM Tris-HCl, 4 mM MnCl2, 1 μM phosphoramidon, 0.1% BSA binding buffer at pH 7.4 to a final assay concentration of 5 μg protein/well. For inhibition experiments, membranes were incubated with [^3H]SR142801 at a concentration equal to KD value of radioligand and 10 concentrations of the inhibitory compound (0.0003-10 μM) (in a total reaction volume of 500 μl) for 75 min at room temperature (RT). At the end of the incubation, membranes were filtered onto unitfilter (96-well white microplate with bonded GF/C filter preincubated 1 h in 0.3% PEI+0.3% BSA, Packard BioScience, Meriden, Conn.) with a Filtermate 196 harvester (Packard BioScience) and washed 4 times with ice-cold 50 mM Tris-HCl, pH 7.4 buffer. Nonspecific binding was measured in the presence of 10 μM SB222200 for both radioligands. The radioactivity on the filter was counted (5 min) on a Packard Top-count microplate scintillation counter with quenching correction after addition of 45 μl of microscint 40 (Canberra Packard S. A., Zurich, Switzerland) and shaking for 1 h. Inhibition curves were fitted according to the Hill equation: y=100/(1+(x/IC50)^nH), where nH=slope factor using Excel-fit 4 software ([…]). IC50 values were derived from the inhibition curve and the affinity constant (IQ values were calculated using the Cheng-Prussoff equation Ki=IC50/(1+[L]/KD) where [L] is the concentration of radioligand and KD is its dissociation constant at the receptor, derived from the saturation isotherm. All experiments were performed in duplicate and the mean±standard error (SEM) of the individual Ki values was calculated.

[1] = [3H]SR142801, membranes of HEK293 cells transiently expressing recombinant human NK3 receptor, read-out: hNK3 Ki
[2] = representative compounds, [3H]SR142801, HEK293 membranes, human NK3 receptor, read-out: Ki NK3 h

SMILES	pKi [1]	pKi [2]
CC(=O)N(C)C1CCN(CCC(C)(C(=O)N(C)Cc2ccc(Cl)c(C(F)(F)F)c2)c2ccc(Cl)c(Cl)c2)CC1 (stereo not drawn) [Example 103, 4-[4-(Acetyl-methyl-amino)-piperidin-1-yl]-N-(4-chloro-3-trifluoromethyl-benzyl)-2-(3,4-dichloro-phenyl)-2,N-dimethyl-butyramide]	8.66	8.66
CC[C@H](NC(=O)C(C)(CCN1CCC(NC(C)=O)CC1)c1ccc(Cl)c(Cl)c1)c1ccccc1 (stereo partly drawn) [Example 161, 4-(4-Acetylamino-piperidin-1-yl)-2-(3,4-dichloro-phenyl)-2-methyl-N-((S)-1-phenyl-propyl)-butyramide]	7.35	–
CN(Cc1ccccc1Cl)C(=O)C(CCN1CCC(NS(C)(=O)=O)CC1)c1ccc(Cl)c(Cl)c1 (stereo not drawn) [Example 41, N-(2-Chloro-benzyl)-2-(3,4-dichloro-phenyl)-4-(4-methanesulfonyl-amino-piperidin-1-yl)-N-methyl-butyramide]	6.59	–
CS(=O)(=O)NC1CCN(CCC(C(=O)NCc2ccc(Cl)c(C(F)(F)F)c2)c2ccc(Cl)c(Cl)c2)CC1 (stereo not drawn) [Example 36, N-(4-Chloro-3-trifluoromethyl-benzyl)-2-(3,4-dichloro-phenyl)-4-(4-methanesulfonyl-amino-piperidin-1-yl)-butyramide]	6.45	–
CC(=O)N(C)C1CCN(CCC(C)(C(=O)N(C)Cc2ccccc2Cl)c2ccc(Cl)c(Cl)c2)CC1 (stereo not drawn) [Example 108, 4-[4-(Acetyl-methyl-amino)-piperidin-1-yl]-N-(2-chloro-benzyl)-2-(3,4-dichloro-phenyl)-2,N-dimethyl-butyramide]	7.92	–
COc1cc(CN(C)C(=O)C(C)(CCN2CCC(NS(C)(=O)=O)CC2)c2ccc(Cl)c(Cl)c2)ccc1OC(F)F (stereo not drawn) [Example 5, 2-(3,4-Dichloro-phenyl)-N-(4-difluoromethoxy-3-methoxy-benzyl)-4-(4-methanesulfonyl-amino-piperidin-1-yl)-2,N-dimethyl-butyramide]	6.57	–
CN(Cc1ccc(F)c(C(F)(F)F)c1)C(=O)C(F)(CCN1CCC(N(C)S(C)(=O)=O)CC1)c1ccc(Cl)c(Cl)c1 (stereo not drawn) [Example 55, 2-(3,4-Dichloro-phenyl)-2-fluoro-N-(4-fluoro-3-trifluoromethyl-benzyl)-4-[4-(methanesulfonyl-methyl-amino)-piperidin-1-yl]-N-methyl-butyramide]	7.63	–
CC(=O)N(C)C1CCN(CCC(C)(C(=O)N[C@@H](CO)c2ccccc2)c2ccc(Cl)c(Cl)c2)CC1 (stereo partly drawn) [Example 134, 4-[4-(Acetyl-methyl-amino)-piperidin-1-yl]-2-(3,4-dichloro-phenyl)-N-((R)-2-hydroxy-1-phenyl-ethyl)-2-methyl-butyramide]	7.45	–
CC(=O)NC1CCN(CCC(C)(C(=O)N[C@@H](CO)c2ccc(F)cc2)c2ccc(Cl)c(Cl)c2)CC1 (single isomer, unassigned; diastereoisomer 1) [Example 154, 4-(4-Acetylamino-piperidin-1-yl)-2-(3,4-dichloro-phenyl)-N-[1-(4-fluoro-phenyl)-2-hydroxy-ethyl]-2-methyl-butyramide (diastereoisomer 1)]	6.77	–
CC(=O)N(C)C1CCN(CCC(C)(C(=O)N(C)Cc2ccc(C(F)(F)F)cc2)c2ccc(Cl)c(Cl)c2)CC1 (stereo not drawn) [Example 106, 4-[4-(Acetyl-methyl-amino)-piperidin-1-yl]-2-(3,4-dichloro-phenyl)-2,N-dimethyl-N-(4-trifluoromethyl-benzyl)-butyramide]	8.29	8.29
CC(=O)N(C1CC1)C1CCN(CCC(C)(C(=O)N[C@@H](CO)c2ccc(F)cc2)c2ccc(Cl)c(Cl)c2)CC1 (single isomer, unassigned; diastereoisomer 1) [Example 140, 4-[4-(Acetyl-cyclopropyl-amino)-piperidin-1-yl]-2-(3,4-dichloro-phenyl)-N-[1-(4-fluoro-phenyl)-2-hydroxy-ethyl]-2-methyl-butyramide (diastereoisomer 1)]	7.48	–
CC(=O)N(C1CC1)C1CCN(CCC(C)(C(=O)N[C@H](CO)c2ccc(F)cc2)c2ccc(Cl)c(Cl)c2)CC1 (single isomer, unassigned; diastereoisomer 2) [Example 141, 4-[4-(Acetyl-cyclopropyl-amino)-piperidin-1-yl]-2-(3,4-dichloro-phenyl)-N-[1-(4-fluoro-phenyl)-2-hydroxy-ethyl]-2-methyl-butyramide (diastereoisomer 2)]	6.78	–
CC(=O)N(C)C1CCN(CCC(C)(C(=O)NC(CO)c2ccc(F)cc2)c2ccc(Cl)c(Cl)c2)CC1 (single isomer, unassigned; diastereoisomer 1) [Example 138, 4-[4-(Acetyl-methyl-amino)-piperidin-1-yl]-2-(3,4-dichloro-phenyl)-N-[1-(4-fluoro-phenyl)-2-hydroxy-ethyl]-2-methyl-butyramide (diastereoisomer 1)]	7.53	–
CN(Cc1ccc(Cl)cc1)C(=O)C(CCN1CCC(NS(C)(=O)=O)CC1)c1ccc(Cl)c(Cl)c1 (stereo not drawn) [Example 37, N-(4-Chloro-benzyl)-2-(3,4-dichloro-phenyl)-4-(4-methanesulfonyl-amino-piperidin-1-yl)-N-methyl-butyramide]	7.10	–
CN(Cc1cccc(C(F)(F)F)c1)C(=O)C(C)(CCN1CCC(NS(C)(=O)=O)CC1)c1ccc(Cl)c(Cl)c1 (stereo not drawn) [Example 28, 2-(3,4-Dichloro-phenyl)-4-(4-methanesulfonyl-amino-piperidin-1-yl)-2,N-dimethyl-N-(3-trifluoromethyl-benzyl)-butyramide]	7.66	–
CN(Cc1ccc(Cl)c(Cl)c1)C(=O)C(C)(CCN1CCC(N(C2CC2)S(C)(=O)=O)CC1)c1ccc(Cl)c(Cl)c1 (stereo not drawn) [Example 60, 4-[4-(Cyclopropyl-methanesulfonyl-amino)-piperidin-1-yl]-N-(3,4-dichloro-benzyl)-2-(3,4-dichloro-phenyl)-2,N-dimethyl-butyramide]	8.59	8.59
COc1ccc(CN(C)C(=O)C(C)(CCN2CCC(NS(C)(=O)=O)CC2)c2ccc(Cl)c(Cl)c2)cc1F (stereo not drawn) [Example 1, 2-(3,4-Dichloro-phenyl)-N-(3-fluoro-4-methoxy-benzyl)-4-(4-methanesulfonylamino-piperidin-1-yl)-2,N-dimethyl-butyramide]	6.73	–
CC(CCN1CCC(NS(C)(=O)=O)CC1)(C(=O)NCc1ccc(OC(F)(F)F)cc1)c1ccc(Cl)c(Cl)c1 (stereo not drawn) [Example 23, 2-(3,4-Dichloro-phenyl)-4-(4-methanesulfonyl-amino-piperidin-1-yl)-2-methyl-N-(4-trifluoromethoxy-benzyl)-butyramide]	6.85	–
CN(Cc1ccc(Cl)c(C(F)(F)F)c1)C(=O)C(C)(CCN1CCC(N(C)S(C)(=O)=O)CC1)c1ccc(Cl)c(Cl)c1 (stereo not drawn) [Example 46, N-(4-Chloro-3-trifluoromethyl-benzyl)-2-(3,4-dichloro-phenyl)-4-[4-(methanesulfonyl-methyl-amino)-piperidin-1-yl]-2,N-dimethyl-butyramide]	8.62	8.62
CC(CCN1CCC(NS(C)(=O)=O)CC1)(C(=O)NCc1cccc(OC(F)(F)F)c1)c1ccc(Cl)c(Cl)c1 (stereo not drawn) [Example 21, 2-(3,4-Dichloro-phenyl)-4-(4-methanesulfonyl-amino-piperidin-1-yl)-2-methyl-N-(3-trifluoromethoxy-benzyl)-butyramide]	6.83	–
CC(=O)N(C)C1CCN(CCC(C)(C(=O)N(C)Cc2ccc(Cl)c(Cl)c2)c2ccc(Cl)c(Cl)c2)CC1 (stereo not drawn) [Example 100, 4-[4-(Acetyl-methyl-amino)-piperidin-1-yl]-N-(3,4-dichloro-benzyl)-2-(3,4-dichloro-phenyl)-2,N-dimethyl-butyramide]	8.52	8.52
CN(Cc1ccccc1Cl)C(=O)C(F)(CCN1CCC(NS(C)(=O)=O)CC1)c1ccc(Cl)c(Cl)c1 (stereo not drawn) [Example 68, N-(2-Chloro-benzyl)-2-(3,4-dichloro-phenyl)-2-fluoro-4-(4-methanesulfonyl-amino-piperidin-1-yl)-N-methyl-butyramide]	6.80	–

Source: patent publication US20110021565A1, “PIPERIDINE DERIVATIVES AS NK3 ANTAGONISTS” (priority 2007, published 2011)
